Results taken from patent US20250177392A1, “BROAD SPECTRUM INHIBITORS OF CYTOMEGALOVIRUS” (MICROBIOTIX, INC., priority 2022, published 2025).
Values after ≈ are worked out from the molar mass of the structure shown.

What was measured:
CYP3A4 = CYP3A4 (Homo sapiens, UniProt P08684); assay: CYP3A4 inhibition at 10 μM; format: in vitro ADME; conditions: % inhibition of CYP3A4 at 10 μM
[1] = Cytotoxicity (CC50) against Hela cells for 3 d; format: cell-based; conditions: human
CMV AD169^IE2-YFP = assay: Anti-CMV activity (IC50) of NAPA compounds, AD169 IE2-YFP reporter virus high-content assay in fibroblasts; format: cell-based, Human cytomegalovirus; conditions: Human betaherpesvirus 5, AD169, Fibroblast
Experimental: To identify CMV inhibitors, a high-content screening (HCS) early-stage-specific reporter assay using a CMV AD169 yellow-fluorescent protein (YFP) expressing virus (AD169^IE2-YFP) (Gardner et al., Antiviral Res., 113:49-61 (2015)) was developed to screen >112,000 compounds to identify potent inhibitors (IC50<10 μM) of cytomegalovirus having a minimal mammalian cytotoxicity (CC50) of preferably ≥100 μM. As a result, we have identified, isolated, and characterized a novel series of N-arylpyrimidinamines (NAPAs) that inhibit CMV infection. […] Further, the NAPA compounds are broadly effective at inhibiting virus infection of diverse strains and cell types.
The CMV IE1 and IE2 gene products are translated within 3-6 hours post infection (hpi) and function to stimulate viral promoters to initiate transcription of early and late viral genes (Cherrington et al., J. Virol., 63:1435-40 (1989); Meier et al., J. Virol., 71:1246-1255 (1997)). The CMV AD169 variant that expresses a viral protein chimera consisting of IE2-YFP (AD1691E2/YFP) was utilized to quantify virus infection in a high-throughput screen by a robust fluorescent signal localized exclusively to the nucleus (8-24 hpi) (Gardner et al., supra (2015); Cohen et al., Viruses, 8 (10): 295 (2016); Cohen et al., J. Virol., 90:10715-10727 (2016)). Using the AD1691E2-YFP reporter virus assay, a collection of the compound libraries (>112,000 compounds) was screened for inhibitors of the early stages of CMV replication using a confocal fluorescence microscopic plate reader (BioTek Cytation3). Infection was calculated as a percentage of nuclei containing YFP and cycloheximide (8 μM) was used as a positive control. The Z′ factor for the optimized assay was >0.5 which was sufficient to initiate screening.
We evaluated 300 primary hits using an assay funnel designed to prioritize compounds based on antiviral activity, specificity, and drug-like properties. This identified two candidates for hit-to-lead optimization that were not Pan Assay Interference compounds (PAINS) (Baell et al., J. Med. Chem., 53:2719-40 (2010); Capuzzi et al., J. Chem. Inf. Model 57:417-427 (2017); Dahlin et al., Assay Drug Dev. Technol., 14:168-174 (2016)). […] The NAPA series was chosen as the primary hit-to-lead series due to its synthetic accessibility and the >2-log range in potency observed in the preliminary SAR that provides a clear pathway to improving antiviral activity and drug-like properties.

[2] = Murine liver microsome stability; format: in vitro ADME; conditions: % remaining after 30 min at 37° C. in the presence of NADPH
[3] = Maximum solubility in water by nephlometry; format: physicochemical; conditions: Maximum solubility in water determined by nephlometry; for solubility kinetic: kinetic from dmso stock
HCMV strain TB40/E = assay: CMV infection (neutralization) assay, IE1 immunostain 24 hpi, TB40/E; format: cell-based, Human cytomegalovirus
Experimental: Fibroblasts and ARPE-19 cells (10^4) were plated in 96-well plates (Greiner, Monroe, NC). The following day the cells were pretreated for 1 hour at 37° C. with increasing concentrations of the respective novel NAPA compounds described herein or DMSO in triplicate prior to infection with the respective viruses. At 18 hours post infection (hpi) cells were stained using a rabbit anti-IE1 antibody followed by an anti-rabbit Alexa 647 and measured using a Celigo Cytometer (Parsons et al., Antiviral Res., 193:105124 (2021); Stein et al., Nat. Commun., 10:2699 (2019)). Using the DMSO treated cells as 100% infection, the percent infection of the NAPA compound-treated cells was determined. […]
(§1) To further evaluate the inhibitory properties of MBXC-4302 against CMV, we utilized the AD169 CMV virus strain containing the UL131-UL128 open reading frame of the HCMV strain TR and expressing EGFP (AD169^R) (Wang D. and Shenk T., Proc. Nat. Acad. Sci., USA, 102:18153-18158 (2005)) and TB40/E infection of human fibroblasts (NHDF) and ARPE-19 epithelial cells in the presence of increasing concentration of compound (FIG. 2A-D). Infection was analyzed 24 hours post infection (hpi) by measuring GFP fluorescence encoded by AD169^R or using an anti-IE1 antibody for staining TB40/E infected cells.

HCMV strain AD169^R = assay: CMV infection (neutralization) assay, GFP/IE1 readout 24 hpi, AD169^R; format: cell-based, Human cytomegalovirus
Experimental: Fibroblasts and ARPE-19 cells (10^4) were plated in 96-well plates (Greiner, Monroe, NC). The following day the cells were pretreated for 1 hour at 37° C. with increasing concentrations of the respective novel NAPA compounds described herein or DMSO in triplicate prior to infection with the respective viruses. At 18 hours post infection (hpi) cells were stained using a rabbit anti-IE1 antibody followed by an anti-rabbit Alexa 647 and measured using a Celigo Cytometer (Parsons et al., Antiviral Res., 193:105124 (2021); Stein et al., Nat. Commun., 10:2699 (2019)). Using the DMSO treated cells as 100% infection, the percent infection of the NAPA compound-treated cells was determined. The half maximal inhibitory (IC50) values were calculated using Prism9's nonlinear fit [inhibitor]-vs-response (four parameters) analysis of these averages and extrapolation to the concentration that would produce 50% infection relative to DMSO treatment.
as §1
NAPA variants with modified groups were evaluated for inhibition of CMV infection in fibroblasts. AD169^R infected fibroblasts were treated with NAPA compounds MBX-4992, MBXC-4325, MBXC-4330, and MBXC-4336 (0-50 μM) and analyzed for infection at 24 hpi (FIG. 6A-D). The infected cells were probed for IE1 as an indication of virus infection.

AD169^R (IE1 expression) = assay: Western blot (immunoblot) of IE1 expression in AD169^R-infected cells; format: cell-based, Human cytomegalovirus; conditions: NHDF cells, 24 hpi; MBX-4992 1-10 μM, ganciclovir 5 μM, convallotoxin 0.01 μM
Experimental: The molecular weight markers and respective proteins are indicated.
FIGS. 12A and B are Western Blot assays showing that MBXC-4336 limits expression of IE1 in fibroblasts and epithelial cells. Total cell lysates from AD169^R-infected (MOI 0.2) NHDF (A) and ARPE-19 (B) cells pre-treated with DMSO, MBX-4336 (0, 1, 5, 10, or 20 μM), or heparin (50 μg/mL) collected at 48 hpi were subjected to Western blot analysis using a rabbit anti-IE-1 antibody (lanes 1-7) and an anti-GAPDH antibody (lanes 8-14) as a loading control. The molecular weight markers and respective proteins are indicated.
Total cell lysates from virus infected NHDF cells treated with compounds were created through SDS-lysis (10^4/100 uL of 1% SDS) of at least three rounds of heating at 95° C. for 3 min and vigorous agitation. The total cell lysates were resolved using an SDS-polyacrylamide gel (12.5%), transferred to a PVDF membrane using a semi-dry apparatus. The membrane was then incubated with 1% BSA/PBS for 1 hr at room temperature followed by incubation with anti-IE1 and anti-GAPDH. Finally, the respective secondary antibody conjugated with HRP was incubated with membrane followed by detection using ECL reagents (Millipore).
Next, inhibition of the expression of IE1 in AD169^R-infected cells treated with MBX-4992 was examined by immunoblot analysis (FIG. 4E). […] Collectively, these findings further indicate that MBX-4992 effectively prevents the expression of the immediate-early genes during a CMV infection.

Sequence of CYP3A4 (P08684 whole entry, species assumed): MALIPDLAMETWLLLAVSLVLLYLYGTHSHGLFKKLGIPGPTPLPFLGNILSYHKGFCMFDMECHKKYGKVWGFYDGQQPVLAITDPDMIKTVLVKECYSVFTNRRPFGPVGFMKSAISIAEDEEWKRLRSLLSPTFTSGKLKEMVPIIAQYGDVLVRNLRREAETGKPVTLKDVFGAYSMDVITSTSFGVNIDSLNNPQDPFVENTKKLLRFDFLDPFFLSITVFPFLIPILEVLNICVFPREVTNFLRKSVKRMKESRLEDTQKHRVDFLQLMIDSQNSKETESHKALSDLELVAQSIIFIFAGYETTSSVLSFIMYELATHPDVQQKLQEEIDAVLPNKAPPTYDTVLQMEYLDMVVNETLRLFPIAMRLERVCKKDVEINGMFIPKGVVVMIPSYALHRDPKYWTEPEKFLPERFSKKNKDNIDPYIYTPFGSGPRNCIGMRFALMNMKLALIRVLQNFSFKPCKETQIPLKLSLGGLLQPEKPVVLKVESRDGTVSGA

SMILES	CYP (CYP3A4)	CC50 at 3 d [1]	IC50 (CMV AD169^IE2-YFP)	MLMS [2]	solubility kinetic [3]	Sol [3]	IC50 (HCMV strain TB40/E; Human betaherpesvirus 5, ARPE-19)	IC50 (HCMV strain TB40/E; Human betaherpesvirus 5, NHDF)	IC50 (HCMV strain AD169^R; Human betaherpesvirus 5, AD169, ARPE-19)	IC50 (HCMV strain AD169^R; Human betaherpesvirus 5, AD169, NHDF)	IE1 expression by immunoblot (AD169^R (IE1 expression))
Cc1nc(Nc2ccc(NC(=O)c3ccco3)cc2)cc(N(C)C)n1 [MBX-4991]	18%	> 100 µM	2.3 µM	65%	> 200 µM						
Cc1nc(Nc2ccc(NC(=O)c3cccs3)cc2)cc(N(C)C)n1 [MBXC-4294]		57 µM	> 40 µM								
Cc1nc(Nc2ccc(NC(=O)c3ccco3)cc2)cc(N2CCCCC2)n1 [MBXC-4295]	<10%	54 µM	0.46 µM	36%	50 µM (≈ 18.9 µg/mL)						
Cc1ccc(Nc2cc(Nc3ccc(NC(=O)c4ccco4)cc3)nc(C)n2)cc1 [MBXC-4297]	<10%	21 µM	0.37 µM	44%	25 µM (≈ 9.99 µg/mL)						
CCNc1cc(Nc2ccc(NC(=O)c3ccco3)cc2)nc(C)n1 [MBXC-4298]	50%	29 µM	3.7 µM	64%	200 µM (≈ 67.5 µg/mL)						
Cc1ccc(Nc2nc(C)cc(Nc3ccc(NC(=O)c4ccco4)cc3)n2)cc1 [MBXC-4299]	< 10%	5.5 µM	0.32 µM	68%							
Cc1ccc(Nc2nc(C)cc(Nc3ccc(NC(=O)Nc4cccc(Cl)c4)cc3)n2)cc1 [MBXC-4300]	N/A 10%	2.7 µM	3.8 µM	N/A 60%		N/A 3.1 μM					
Cc1ccc(Nc2nc(C)cc(Nc3ccc(NS(=O)(=O)c4ccccc4)cc3)n2)cc1 [MBXC-4301]		11 µM	24 µM								
Cc1nc(Nc2ccc(NC(=O)c3ccco3)cc2)cc(-n2cccn2)n1 [MBXC-4302]	<10%	> 100 µM	3.2 µM	62%	12.5 µM (≈ 4.5 µg/mL)		~5.3 µM	~5.3 µM	5.8 µM	3 µM	
Cc1cc(Nc2ccccc2)nc(Nc2ccc(NC(=O)c3ccc(Cl)cc3)cc2)n1 [MBXC-4303]		7 µM	20 µM								
Cc1ccc(Nc2cc(C)nc(Nc3ccc(NC(=O)c4ccco4)cc3)n2)cc1 [MBXC-4304]	16%	5.8 µM	0.48 µM	63%							
C[C@@H]1O[C@@H](O[C@H]2CC[C@]3(C=O)[C@H]4CC[C@]5(C)[C@@H](C6=CC(=O)OC6)CC[C@]5(O)[C@@H]4CC[C@]3(O)C2)[C@H](O)[C@H](O)[C@H]1O [convallatoxin, reference compound]											prevented infection
